Data: ChEMBL document CHEMBL1131666, “Discovery of a novel series of selective MMP inhibitors: identification of the gamma-sulfone-thiols” (Bioorg Med Chem Lett, 1999)
pIC50: −log10 of the molar value.

Tests used:
Interstitial collagenase = molecular target: T1, Interstitial collagenase (Homo sapiens, UniProt P03956); assay: Inhibition of matrix metalloprotease-1 (MMP-1)
T1 sequence (P03956 whole entry): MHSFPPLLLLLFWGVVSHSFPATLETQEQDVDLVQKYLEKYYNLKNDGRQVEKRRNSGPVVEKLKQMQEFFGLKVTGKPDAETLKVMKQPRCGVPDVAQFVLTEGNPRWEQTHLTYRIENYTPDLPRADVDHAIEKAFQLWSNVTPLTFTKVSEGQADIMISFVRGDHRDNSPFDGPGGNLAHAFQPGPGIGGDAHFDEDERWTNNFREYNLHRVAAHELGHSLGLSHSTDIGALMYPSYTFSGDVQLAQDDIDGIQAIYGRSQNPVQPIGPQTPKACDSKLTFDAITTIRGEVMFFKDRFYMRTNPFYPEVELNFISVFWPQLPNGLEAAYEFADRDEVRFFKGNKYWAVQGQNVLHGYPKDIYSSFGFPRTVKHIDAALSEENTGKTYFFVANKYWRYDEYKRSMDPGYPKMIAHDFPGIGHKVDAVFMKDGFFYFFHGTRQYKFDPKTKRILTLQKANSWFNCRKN

Stromelysin-1 = Stromelysin-1 (Homo sapiens, UniProt P08254); assay: Inhibition of matrix metalloprotease-3 (MMP-3)
Neutrophil collagenase = Neutrophil collagenase (Homo sapiens, UniProt P22894); assay: Inhibition of Matrix metalloprotease-8
Collagenase 3 = Collagenase 3 (Homo sapiens, UniProt P45452); assay: Inhibition of Matrix metalloprotease-13 (MMP-13)

Sequence of Neutrophil collagenase (P22894 whole entry): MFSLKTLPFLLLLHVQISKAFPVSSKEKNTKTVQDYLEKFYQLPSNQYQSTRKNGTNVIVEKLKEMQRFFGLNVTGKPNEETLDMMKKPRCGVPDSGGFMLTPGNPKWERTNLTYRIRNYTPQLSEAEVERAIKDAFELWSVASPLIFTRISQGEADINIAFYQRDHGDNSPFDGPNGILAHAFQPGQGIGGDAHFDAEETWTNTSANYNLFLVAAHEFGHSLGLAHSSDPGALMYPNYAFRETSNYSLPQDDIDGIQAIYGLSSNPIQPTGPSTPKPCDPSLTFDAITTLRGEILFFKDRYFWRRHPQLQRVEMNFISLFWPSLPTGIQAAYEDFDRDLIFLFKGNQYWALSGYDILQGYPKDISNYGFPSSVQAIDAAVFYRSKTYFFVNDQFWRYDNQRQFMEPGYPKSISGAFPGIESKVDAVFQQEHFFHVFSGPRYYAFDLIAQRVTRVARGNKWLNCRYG
Sequence of Stromelysin-1 (P08254 whole entry): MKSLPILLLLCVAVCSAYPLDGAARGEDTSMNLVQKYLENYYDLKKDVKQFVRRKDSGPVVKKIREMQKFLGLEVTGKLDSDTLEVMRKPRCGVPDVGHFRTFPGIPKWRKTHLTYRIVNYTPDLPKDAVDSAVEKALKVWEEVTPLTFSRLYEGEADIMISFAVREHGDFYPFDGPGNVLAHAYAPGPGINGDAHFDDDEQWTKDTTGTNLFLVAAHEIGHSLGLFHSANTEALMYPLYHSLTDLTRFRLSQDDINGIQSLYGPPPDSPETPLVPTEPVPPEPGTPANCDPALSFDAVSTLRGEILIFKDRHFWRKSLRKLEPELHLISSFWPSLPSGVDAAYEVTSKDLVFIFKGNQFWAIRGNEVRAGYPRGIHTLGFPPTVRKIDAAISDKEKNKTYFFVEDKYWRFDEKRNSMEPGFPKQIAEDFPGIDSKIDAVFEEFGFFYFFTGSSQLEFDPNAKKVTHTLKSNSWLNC

pIC50 (Interstitial collagenase)	pIC50 (Stromelysin-1)	pIC50 (Neutrophil collagenase)	pIC50 (Collagenase 3)	Structure (SMILES)
< 5.00				CCCCC(S)CCS(=O)(=O)c1ccc(OC)cc1 (stereo not drawn)
< 5.00				COc1ccc(S(=O)(=O)CCCS)cc1
< 5.00				COc1ccc(S(=O)(=O)CC(C)(C)CS)cc1
< 5.00	6.82	7.44		O=S(=O)(CCCS)c1ccc(Sc2ccccc2)cc1
5.30			6.60	COc1ccc(S(=O)(=O)C[C@@H](C)CS)cc1
5.40				COC(=O)C(S)CCS(=O)(=O)c1ccc(OC)cc1 (stereo not drawn)
5.10			7.49	COc1ccc(S(=O)(=O)CCC(C)S)cc1 (stereo not drawn)
< 5.00				COc1ccc(S(=O)(=O)C[C@H](C)CS)cc1
< 5.00				COc1ccc(S(=O)(=O)C(CCS)c2ccccc2)cc1 (stereo not drawn)
			8.22	CCCC(CCS)S(=O)(=O)c1ccc(OC)cc1 (stereo not drawn)
5.82	6.30	8.40	9.30	O=S(=O)(CCCS)c1ccc(Oc2ccccc2)cc1
